Patent US6737383B1, “Herbicidal oxadiazolidines” (priority 1999, dated 2004)

How the values were obtained:
wild oat [1] = test: Test B pre/postemergence wild oat; format: in vivo, Avena fatua; conditions: for Plant response rating, Wild oats: Rate 250 g/ha
How it was run: (§1)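 Response is a visual 0-to-10 score relative to untreated plants, where 0 means no effect and 10 means complete control, taken twelve to sixteen days after application. Treatments went onto soil at planting and onto foliage of 1- to 4-leaf plants, using a surfactant-containing non-phytotoxic solvent.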

blackgrass = test: Test E blackgrass; format: in vivo, Alopecurus myosuroides; conditions: Preemergence
purple nutsedge = test: Test D purple nutsedge; format: in vivo, Cyperus rotundus; conditions: Preemergence, 0 to 100 scale
How it was run: (§2)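 Visual injury ratings, 0 = no injury to 100 = complete control, taken 14 to 21 days after treatment. Test chemicals were in a surfactant-containing non-phytotoxic solvent; preemergence treatments went onto the sandy loam surface of seeded greenhouse pots within one day of sowing.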

cocklebur = test: Test B pre/postemergence cocklebur; format: in vivo, Xanthium strumarium
How it was run: as §1

wheat = test: Test B pre/postemergence wheat; format: in vivo, Triticum aestivum; conditions: for Plant response rating, Wheat: Rate 250 g/ha
How it was run: as §1

winter wheat [2] = test: Test E winter wheat; format: in vivo, Triticum aestivum; conditions: Postemergence
How it was run: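 Greenhouse test: for postemergence, foliar application at 1- to 4-leaf stage; compound in non-phytotoxic solvent with surfactant. Rating is visual, relative to untreated controls, about 21 to 28 days after treatment.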

large crabgrass = test: Test D large crabgrass; format: in vivo, Digitaria sanguinalis; conditions: Preemergence, 0 to 100 scale
How it was run: as §2

common ragweed = test: Test D common ragweed; format: in vivo, Ambrosia elatior; conditions: Preemergence, 0 to 100 scale
How it was run: as §2

green foxtail = test: Test E green foxtail; format: in vivo, Setaria viridis; conditions: Preemergence
crabgrass = test: Test B pre/postemergence crabgrass; format: in vivo, Digitaria sanguinalis
How it was run: as §1

winter barley = test: Test E winter barley; format: in vivo, Hordeum vulgare; conditions: Preemergence
winter wheat [3] = test: Test E winter wheat; format: in vivo, Triticum aestivum; conditions: Preemergence
wild oat [4] = test: Test E wild oat; format: in vivo, Avena fatua; conditions: Preemergence
guineagrass = test: Test D guineagrass; format: in vivo, Panicum maximum; conditions: Preemergence, 0 to 100 scale
How it was run: as §2

Italian ryegrass = test: Test E Italian ryegrass; format: in vivo, Lolium multiflorum; conditions: Preemergence
[5] = Postemergence, Rate 62 g/ha, scale 0 to 10, 0 is no effect, 10 is complete control
[6] = Postemergence, Rate 125 g/ha, scale of 0 to 10 where 0 is no effect and 10 is complete control
[7] = Preemergence, Rate 62 g/ha, scale 0 to 10 (0 no effect, 10 complete control)
[8] = Preemergence, Rate 125 g/ha, 0 is no effect, 10 is complete control
[9] = Preemergence, scale of 0 to 10 where 0 is no effect and 10 is complete control
[10] = Preemergence, Rate 500 g/ha, scale 0 (no effect) to 10 (complete control)
[11] = Postemergence, scale 0 to 10, 0 is no effect, 10 is complete control
[12] = Rate 500 g/ha, Postemergence, scale 0 to 10, 0 no effect, 10 complete control
[13] = Rate 31 g/ha, 0 to 100 scale, 0 no effect, 100 complete control
[14] = Rate 62 g/ha, 0 to 100 scale, 0 no effect, 100 complete control
[15] = Rate 125 g/ha, 0 to 100 scale (0 no effect, 100 complete control)
[16] = Rate 16 g/ha, 0 no injury, 100 complete control
[17] = Rate 32 g/ha, 0 no injury, 100 complete control
[18] = Rate 64 g/ha, 0 no injury, 100 complete control
[19] = Rate 125 g/ha, 0 no injury, 100 complete control
[20] = Postemergence, Rate 250 g/ha, scale 0 to 10, 0 no effect, 10 complete control
[21] = Preemergence, Rate 125 g/ha, scale 0 to 10 (0 no effect, 10 complete control)

For C=CCn1c(=O)on(C(=O)N(c2ccccc2)C(C)C)c1=O [Compound 93], the “Wild oats plant response rating” value (wild oat [1]; [5]) was 0, the “Wild oats plant response rating” value (wild oat [1]; [6]) was 0 and the “Wild oats plant response rating” value (wild oat [1]; [7]) was 8. The “Wild oats plant response rating (0 to 10 scale)” value (wild oat [1]; [8]) was 8, the “Plant response rating, Wild oats” value (wild oat [1]; [9]) was 10 and the “Wild oats plant response rating” value (wild oat [1]; [10]) was 10. The “Plant response rating, Wild oats” value (wild oat [1]; [11]) was 2, the “Wild oats plant response rating” value (wild oat [1]; [12]) was 5 and the “Plant response rating, Blackgrass” value (blackgrass; [13]) was 0. The “Plant response rating, Blackgrass” value (blackgrass; [14]) was 50, the “Plant response rating, Blackgrass” value (blackgrass; [15]) was 70 and the “Plant response rating, Blackgrass” value (blackgrass; Rate 250 g/ha, 0 to 100 scale) was 75. For the same compound, the “Plant response rating, Purple nutsedge” value (purple nutsedge; [16]) was 0, the “Plant response rating, Purple nutsedge” value (purple nutsedge; [17]) was 0 and the “Purple nutsedge plant response rating” value (purple nutsedge; [18]) was 20. The “Purple nutsedge plant response rating” value (purple nutsedge; [19]) was 0, the “Plant response rating, Purple nutsedge” value (purple nutsedge; Rate 250 g/ha) was 30 and the “Plant response rating, Purple nutsedge” value (purple nutsedge; Rate 500 g/ha) was 100. The “Cocklebur plant response rating” value (cocklebur; [5]) was 0, the “Cocklebur plant response rating” value (cocklebur; [6]) was 1 and the “Cocklebur plant response rating” value (cocklebur; [20]) was 2. For the same compound, the “Cocklebur plant response rating” value (cocklebur; [7]) was 2, the “Plant response rating, Cocklebur” value (cocklebur; [21]) was 2 and the “Cocklebur plant response rating” value (cocklebur; [12]) was 4. The “Wheat plant response rating” value (wheat; [5]) was 0, the “Wheat plant response rating” value (wheat; [6]) was 3 and the “Wheat plant response rating” value (wheat; [7]) was 3. For the same compound, the “Wheat plant response rating (0 to 10 scale)” value (wheat; [8]) was 3, the “Plant response rating, Wheat” value (wheat; [9]) was 6 and the “Wheat plant response rating” value (wheat; [10]) was 8. For the same compound, the “Plant response rating, Wheat” value (wheat; [11]) was 4, the “Wheat plant response rating” value (wheat; [12]) was 5 and the “Plant response rating, Wheat (winter)” value (winter wheat [2]; [13]) was 0. The “Plant response rating, Wheat (winter)” value (winter wheat [2]; Rate 62 g/ha, 0 to 100 scale) was 20, the “Plant response rating, Wheat (winter)” value (winter wheat [2]; Rate 125 g/ha, 0 to 100 scale) was 65 and the “Plant response rating, Wheat (winter)” value (winter wheat [2]; Rate 250 g/ha, 0 to 100 scale (0 no effect, 100 complete control)) was 0. The “Plant response rating, Large crabgrass” value (large crabgrass; [16]) was 90, the “Plant response rating, Large crabgrass” value (large crabgrass; [17]) was 98 and the “Plant response rating, Large crabgrass” value (large crabgrass; [18]) was 98. The “Plant response rating, Large crabgrass” value (large crabgrass; [19]) was 100, the “Plant response rating, Large crabgrass” value (large crabgrass; Rate 250 g/ha) was 100 and the “Plant response rating, Large crabgrass” value (large crabgrass; Rate 500 g/ha) was 100. The “Plant response rating, C. ragweed” value (common ragweed; [16]) was 0, the “Plant response rating, C. ragweed” value (common ragweed; [17]) was 0 and the “Plant response rating, C. ragweed” value (common ragweed; [18]) was 0. The “Plant response rating, C. ragweed” value (common ragweed; [19]) was 10, the “Plant response rating, C. ragweed” value (common ragweed; Rate 250 g/ha) was 0 and the “Plant response rating, C. ragweed” value (common ragweed; Rate 500 g/ha) was 80. The “Plant response rating, Green foxtail” value (green foxtail; [13]) was 30, the “Plant response rating, Green foxtail” value (green foxtail; [14]) was 70 and the “Plant response rating, Green foxtail” value (green foxtail; [15]) was 80. The “Crabgrass plant response rating” value (crabgrass; [5]) was 7, the “Crabgrass plant response rating” value (crabgrass; [6]) was 8 and the “Crabgrass plant response rating” value (crabgrass; [20]) was 9. The “Crabgrass plant response rating” value (crabgrass; [7]) was 7, the “Plant response rating, Crabgrass” value (crabgrass; [21]) was 9 and the “Plant response rating, Crabgrass” value (crabgrass; Preemergence, Rate 250 g/ha, scale of 0 to 10 where 0 is no effect and 10 is complete control) was 9. The “Crabgrass plant response rating” value (crabgrass; [10]) was 10, the “Crabgrass plant response rating” value (crabgrass; [12]) was 9 and the “Plant response rating, Barley (winter)” value (winter barley; [13]) was 20. The “Plant response rating, Barley (winter)” value (winter barley; [14]) was 50, the “Plant response rating, Barley (winter)” value (winter barley; [15]) was 50 and the “Plant response rating, Barley (winter)” value (winter barley; Rate 250 g/ha, 0 to 100 scale) was 50. For the same compound, the “Plant response rating, Wheat (winter)” value (winter wheat [3]; [13]) was 20, the “Plant response rating, Wheat (winter)” value (winter wheat [3]; [14]) was 40 and the “Plant response rating, Wheat (winter)” value (winter wheat [3]; [15]) was 40. For the same compound, the “Plant response rating, Wheat (winter)” value (winter wheat [3]; Rate 250 g/ha, 0 to 100 scale) was 100, the “Plant response rating, Wild oat” value (wild oat [4]; [13]) was 40 and the “Plant response rating, Wild oat” value (wild oat [4]; [14]) was 50. The “Plant response rating, Wild oat” value (wild oat [4]; [15]) was 60, the “Plant response rating, Guineagrass” value (guineagrass; [16]) was 65 and the “Plant response rating, Guineagrass” value (guineagrass; [17]) was 75. For the same compound, the “Plant response rating, Guineagrass” value (guineagrass; [18]) was 100, the “Plant response rating, Guineagrass” value (guineagrass; [19]) was 100 and the “Plant response rating, Guineagrass” value (guineagrass; Rate 250 g/ha) was 100. For the same compound, the “Plant response rating, Guineagrass” value (guineagrass; Rate 500 g/ha) was 100, the “Plant response rating, I. Ryegrass” value (Italian ryegrass; [13]) was 30 and the “Plant response rating, I. Ryegrass” value (Italian ryegrass; [14]) was 50. For the same compound, the “Plant response rating, I. Ryegrass” value (Italian ryegrass; [15]) was 70 and the “Plant response rating, I. Ryegrass” value (Italian ryegrass; Rate 250 g/ha, 0 to 100 scale) was 100.
